# From PubChem BioAssay AID1963964 (Molecular Pharmacology Branch, DTP, NCI, 2024)
# System: 997726-040-R-J2-PDC tumor spheroids, viability
# Test: Anticancer human tumor 997726-040-R-J2-PDC patient-derived squamous cell lung carcinoma cell line growth inhibition [PI3K]
# Conditions: spheroids with HUVEC and MSC; for IC50: curve of first compound; for viability, T/C: stronger effect = lower value
# Procedure, shortened: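 Targeted small molecules plus PI3K inhibitors, half-log dose series from Cmax (default top 10 microM), were applied to heterotypic spheroids of cancer cells with HUVEC and MSCs. Viability indicated growth inhibition.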
# [1] = second compound 0.0316 µM, first compound 0.0316 µM
# [2] = second compound 0.0316 µM, first compound 0.1 µM
# [3] = second compound 0.1 µM, first compound 0.0316 µM
# [4] = second compound 0.1 µM, first compound 0.1 µM
# [5] = second compound 0.316 µM, first compound 0.0316 µM
# [6] = second compound 0.316 µM, first compound 0.1 µM
# [7] = second compound 1 µM, first compound 0.0316 µM
# [8] = second compound 1 µM, first compound 0.1 µM
# [9] = second compound 3.16 µM, first compound 0.0316 µM
# [10] = second compound 3.16 µM, first compound 0.1 µM
# [11] = second compound 10 µM, first compound 0.0316 µM
# [12] = second compound 10 µM, first compound 0.1 µM
# 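Further: spheroids exposed to compounds for seven days before readout.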
structure (smiles),measurement,setting,value
CC(C)n1nc(-c2ccc3oc(N)nc3c2)c2c(N)ncnc21 + CC(Nc1ncnc2nc[nH]c12)c1cc2cccc(Cl)c2c(=O)n1-c1ccccc1,IC50,second compound 0.0316 µM,23.4 nM
same,IC50,second compound 0.1 µM,25 nM
same,IC50,second compound 0.316 µM,23.9 nM
same,IC50,second compound 1 µM,20.8 nM
same,IC50,second compound 3.16 µM,6.14 nM
same,IC50,second compound 10 µM,2.51 nM
same,"viability, T/C","second compound 0.0316 µM, first compound 0.000316 µM",99.1%
same,"viability, T/C","second compound 0.0316 µM, first compound 0.001 µM",89.6%
same,"viability, T/C","second compound 0.0316 µM, first compound 0.00316 µM",77.3%
same,"viability, T/C","second compound 0.0316 µM, first compound 0.01 µM",62.1%
same,"viability, T/C",[1],50%
same,"viability, T/C",[2],18%
same,"viability, T/C","second compound 0.1 µM, first compound 0.000316 µM",99.3%
same,"viability, T/C","second compound 0.1 µM, first compound 0.001 µM",88.2%
same,"viability, T/C","second compound 0.1 µM, first compound 0.00316 µM",80.2%
same,"viability, T/C","second compound 0.1 µM, first compound 0.01 µM",64%
same,"viability, T/C",[3],48.6%
same,"viability, T/C",[4],19.5%
same,"viability, T/C","second compound 0.316 µM, first compound 0.000316 µM",93.2%
same,"viability, T/C","second compound 0.316 µM, first compound 0.001 µM",90.7%
same,"viability, T/C","second compound 0.316 µM, first compound 0.00316 µM",75.3%
same,"viability, T/C","second compound 0.316 µM, first compound 0.01 µM",62.8%
same,"viability, T/C",[5],48.7%
same,"viability, T/C",[6],17.4%
same,"viability, T/C","second compound 1 µM, first compound 0.000316 µM",86.2%
same,"viability, T/C","second compound 1 µM, first compound 0.001 µM",83.1%
same,"viability, T/C","second compound 1 µM, first compound 0.00316 µM",70.2%
same,"viability, T/C","second compound 1 µM, first compound 0.01 µM",63.8%
same,"viability, T/C",[7],43.4%
same,"viability, T/C",[8],17%
same,"viability, T/C","second compound 3.16 µM, first compound 0.000316 µM",75.4%
same,"viability, T/C","second compound 3.16 µM, first compound 0.001 µM",65.2%
same,"viability, T/C","second compound 3.16 µM, first compound 0.00316 µM",53.2%
same,"viability, T/C","second compound 3.16 µM, first compound 0.01 µM",45.4%
same,"viability, T/C",[9],39.4%
same,"viability, T/C",[10],16.7%
same,"viability, T/C","second compound 10 µM, first compound 0.000316 µM",56.8%
same,"viability, T/C","second compound 10 µM, first compound 0.001 µM",51.4%
same,"viability, T/C","second compound 10 µM, first compound 0.00316 µM",50%
same,"viability, T/C","second compound 10 µM, first compound 0.01 µM",41.8%
same,"viability, T/C",[11],31.2%
same,"viability, T/C",[12],11.9%
CCCS(=O)(=O)Nc1ccc(F)c(C(=O)c2c[nH]c3ncc(-c4ccc(Cl)cc4)cc23)c1F + CC(Nc1ncnc2nc[nH]c12)c1cc2cccc(Cl)c2c(=O)n1-c1ccccc1,IC50,second compound 0.0316 µM,7290 nM
same,IC50,second compound 0.1 µM,7370 nM
same,IC50,second compound 0.316 µM,7390 nM
same,IC50,second compound 1 µM,7170 nM
same,IC50,second compound 3.16 µM,5940 nM
same,IC50,second compound 10 µM,4430 nM
same,"viability, T/C",[1],104%
same,"viability, T/C",[2],103%
same,"viability, T/C","second compound 0.0316 µM, first compound 0.316 µM",128%
same,"viability, T/C","second compound 0.0316 µM, first compound 1 µM",137%
same,"viability, T/C","second compound 0.0316 µM, first compound 3.16 µM",162%
same,"viability, T/C","second compound 0.0316 µM, first compound 10 µM",20.9%
same,"viability, T/C",[3],107%
same,"viability, T/C",[4],116%
same,"viability, T/C","second compound 0.1 µM, first compound 0.316 µM",110%
same,"viability, T/C","second compound 0.1 µM, first compound 1 µM",121%
same,"viability, T/C","second compound 0.1 µM, first compound 3.16 µM",166%
same,"viability, T/C","second compound 0.1 µM, first compound 10 µM",23.1%
same,"viability, T/C",[5],103%
same,"viability, T/C",[6],102%
same,"viability, T/C","second compound 0.316 µM, first compound 0.316 µM",114%
same,"viability, T/C","second compound 0.316 µM, first compound 1 µM",138%
same,"viability, T/C","second compound 0.316 µM, first compound 3.16 µM",169%
same,"viability, T/C","second compound 0.316 µM, first compound 10 µM",23.1%
same,"viability, T/C",[7],102%
same,"viability, T/C",[8],95.5%
same,"viability, T/C","second compound 1 µM, first compound 0.316 µM",109%
same,"viability, T/C","second compound 1 µM, first compound 1 µM",126%
same,"viability, T/C","second compound 1 µM, first compound 3.16 µM",146%
same,"viability, T/C","second compound 1 µM, first compound 10 µM",23%
same,"viability, T/C",[9],71.1%
same,"viability, T/C",[10],80%
same,"viability, T/C","second compound 3.16 µM, first compound 0.316 µM",83.9%
same,"viability, T/C","second compound 3.16 µM, first compound 1 µM",85.4%
same,"viability, T/C","second compound 3.16 µM, first compound 3.16 µM",107%
same,"viability, T/C","second compound 3.16 µM, first compound 10 µM",20.5%
same,"viability, T/C",[11],53.7%
same,"viability, T/C",[12],57.2%
same,"viability, T/C","second compound 10 µM, first compound 0.316 µM",60.1%
same,"viability, T/C","second compound 10 µM, first compound 1 µM",60.4%
same,"viability, T/C","second compound 10 µM, first compound 3.16 µM",82.6%
same,"viability, T/C","second compound 10 µM, first compound 10 µM",19.3%
